Entries after “also recorded” stand apart in the source; their conditions may differ.
tested on: HCV replicon (HCV 1b-377-neo replicon cells, Huh7); test: HCV replicon cell-based FRET assay; settings: Hepatitis C virus, Huh-7
Outline: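 Huh7 cells carrying a neo-selectable genotype 1b HCV replicon (~3,000 RNA copies/cell) were seeded at 1.5×10^4 cells/well and treated 4 days at 37 °C (0.5% DMSO final). CC50 was read by alamar Blue (4 h, ex 530/em 580 nm). Lysates with 10 μM EDANS/DABCYL NS3 protease FRET peptide were read kinetically (ex 340/em 490 nm, 25 °C, ~15 min) for % inhibition.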

| Structure (SMILES) | EC50 [nM] |
| --- | --- |
| COc1ccc2c(OC3CC4C(=O)NC5(C(=O)O)CC5C=CCCCCCC(NC(=O)OC(C)(C)C)C(=O)N4C3)nccc2c1 (stereo not shown) [Compound 17A] | 50 to 500 |
| CC(C)(CCl)OC(=O)NC1CCCCCC=CC2CC2(C(=O)NS(=O)(=O)C2CC2)NC(=O)C2CC(Oc3nccc4ccccc34)CN2C1=O (stereo not shown) [Compound 52] | < 50 |
| CC(C)(C)OC(=O)N[C@H]1CCCCC/C=C\[C@@H]2C[C@@]2(C(=O)NS(C)(=O)=O)NC(=O)[C@@H]2C[C@@H](Oc3nccc4ccccc34)CN2C1=O [Compound 2, [18-(Isoquinolin-1-yloxy)-4-methanesulfonylaminocarbonyl-2,15-dioxo-3,16-diaza-tricyclo[14.3.0.0^4,6]nonadec-7-en-14-yl]-carbamic acid tert-butyl ester] | 50 to 500 |
| COc1ccc2c(OC3CC4C(=O)NC5(C(=O)NS(=O)(=O)C6(C)CC6)CC5C=CCCCSCC(NC(=O)NC5CCCC5)C(=O)N4C3)nccc2c1 (stereo not shown) [Compound 43] | < 50 |
| COc1ccc2c(OC3CC4C(=O)NC5(C(=O)NS(=O)(=O)C6(C)CC6)CC5C=CCCCS(=O)(=O)CC(NC(=O)OC(C)(C)C)C(=O)N4C3)nccc2c1 (stereo not shown) [Compound 49] | 500 to 5000 |
| CCC1(S(=O)(=O)NC(=O)C23CC2C=CCCC[S+]([O-])CC(NC(=O)OC(C)(C)C)C(=O)N2CC(Oc4nccc5cc(OC)ccc45)CC2C(=O)N3)CC1 (stereo not shown) [Compound 47] | < 50 |
| CC(C)(C)OC(=O)N[C@H]1CCCCC/C=C\[C@@H]2C[C@@]2(C(=O)O)NC(=O)[C@@H]2C[C@@H](Oc3nccc4ccccc34)CN2C1=O [Compound 1, 14-tert-Butoxycarbonylamino-18-(isoquinolin-1-yloxy)-2,15-dioxo-3,16-diaza-tricyclo[14.3.0.0^4,6]nonadec-7-ene-4-carboxylic acid] | 500 to 5000 |
| COc1ccc2c(OC3CC4C(=O)NC5(C(=O)NS(=O)(=O)C6CC6)CC5C=CCCCOC(C)C(NC(=O)OC(C)C)C(=O)N4C3)nccc2c1 (stereo not shown) [Compound 64] | 50 to 500 |
| COc1ccc2c(OC3CC4C(=O)NC5(C(=O)NS(=O)(=O)C6(C)CC6)CC5C=CCCCSCC(NC(=O)OCC(C)(C)C)C(=O)N4C3)nccc2c1 (stereo not shown) [Compound 42] | < 50 |
| COc1ccc2c(O[C@@H]3C[C@H]4C(=O)N[C@]5(C(=O)O)C[C@H]5/C=C\CCCSC(C)(C)[C@H](NC(=O)OC(C)(C)C)C(=O)N4C3)nccc2c1 [Compound 79, (1S,4R,6S,14R,18R)-7-cis-14-tert-Butoxycarbonylamino-13,13-dimethyl-18-(6-methoxy-isoquinolin-1-yloxy)-2,15-dioxo-12-thia-3,16-diazatricyclo[14.3.0.0^4,6]nonadec-7-ene-4-carboxylic acid] | 5000 to 50000 |
| COc1ccc2c(OC3CC4C(=O)NC5(C(=O)NS(=O)(=O)C6CC6)CC5C=CCCCOC(C)C(NC(=O)OCC(C)(C)C)C(=O)N4C3)nccc2c1 (stereo not shown) [Compound 63] | 50 to 500 |
| CC(C)(C)OC(=O)NC1CCCCCC=CC2CC2(C(=O)NS(=O)(=O)C2CC2)NC(=O)C2CC(Oc3nc(Cl)cc4ccccc34)CN2C1=O (stereo not shown) [Compound 57] | < 50 |
| COc1ccc2c(OC3CC4C(=O)NC5(C(=O)NS(=O)(=O)C6CC6)CC5C=CCOCCCC(NC(=O)OC(C)(C)C)C(=O)N4C3)nccc2c1 (stereo not shown) [Compound 28, [4-Cyclopropanesulfonylaminocarbonyl-18-(6-methoxy-isoquinolin-1-yloxy)-2,15-dioxo-10-oxa-3,16-diaza-tricyclo[14.3.0.0^4,6]nonadec-7-en-14-yl]-carbamic acid tert-butyl ester] | < 50 |
| CCC1(S(=O)(=O)NC(=O)C23CC2C=CCCCOC(C)C(NC(=O)OC(C)(C)C)C(=O)N2CC(Oc4nccc5cc(OC)ccc45)CC2C(=O)N3)CC1 (stereo not shown) [Compound 70] | 50 to 500 |
| CCCC1(S(=O)(=O)NC(=O)[C@@]23C[C@H]2CCCCCCC[C@H](NC(=O)OC(C)(C)C)C(=O)N2C[C@H](Oc4nccc5ccccc45)C[C@H]2C(=O)N3)CC1 [Compound 7, [18-(Isoquinolin-1-yloxy)-2,15-dioxo-4-(1-propyl-cyclopropanesulfonylaminocarbonyl)-3,16-diaza-tricyclo[14.3.0.0^4,6]nonadec-14-yl]-carbamic acid tert-butyl ester] | < 50 |
| COc1ccc2c(OC3CC4C(=O)NC5(C(=O)NS(=O)(=O)C6(C)CC6)CC5C=CCCCOC(C)C(NC(=O)OCC(C)(C)C)C(=O)N4C3)nccc2c1 (stereo not shown) [Compound 67] | 50 to 500 |
| COCC(=O)NC1CCCCCC=CC2CC2(C(=O)NS(=O)(=O)C2CC2)NC(=O)C2CC(Oc3nccc4ccccc34)CN2C1=O (stereo not shown) [Compound 24] | 50 to 500 |
| COc1ccc2c(O[C@@H]3C[C@H]4C(=O)N[C@]5(C(=O)NS(=O)(=O)C6CC6)C[C@H]5/C=C\CCCS(=O)(=O)C[C@H](NC(=O)OC(C)(C)C)C(=O)N4C3)nccc2c1 [Compound 19] | 50 to 500 |
| O=C(NC1CCCCCC=CC2CC2(C(=O)NS(=O)(=O)C2CC2)NC(=O)C2CC(Oc3nccc4ccccc34)CN2C1=O)OC1CCCC1 (stereo not shown) [Compound 20] | < 50 |
| CC(C)(C)COC(=O)N[C@H]1CCCCC/C=C\[C@@H]2C[C@@]2(C(=O)NS(=O)(=O)C2CC2)NC(=O)[C@@H]2C[C@@H](Oc3nccc4ccccc34)CN2C1=O [Compound 13, [4-Cyclopropanesulfonylaminocarbonyl-18-(isoquinolin-1-yloxy)-2,15-dioxo-3,16-diaza-tricyclo[14.3.0.0^4,6]nonadec-7-en-14-yl]-carbamic acid 2,2-dimethyl-propyl ester] | < 50 |
| COc1ccc2c(O[C@@H]3C[C@H]4C(=O)N[C@]5(C(=O)NS(=O)(=O)C6CC6)C[C@H]5/C=C\CCCCC[C@H](NC(=O)OC(C)(C)C)C(=O)N4C3)nccc2c1 [Compound 17B, [4-Cyclopropanesulfonylaminocarbonyl-18-(6-methoxy-isoquinolin-1-yloxy)-2,15-dioxo-3,16-diaza-tricyclo[14.3.0.0^4,6]nonadec-7-en-14-yl]-carbamic acid tert-butyl ester] | < 50 |
| CCC1(S(=O)(=O)NC(=O)C23CC2C=CCCCOC(C)C(NC(=O)OC(C)C)C(=O)N2CC(Oc4nccc5cc(OC)ccc45)CC2C(=O)N3)CC1 (stereo not shown) [Compound 72] | 50 to 500 |

same assay, conditions: Hepatitis C virus, Huh-7; read-out: EC50 value in the replicon assay

| Structure (SMILES) | EC50 [nM] |
| --- | --- |
| CC(C)(C)OC(=O)N[C@H]1CCCCC/C=C\[C@@H]2C[C@@]2(C(=O)NS(C)(=O)=O)NC(=O)[C@@H]2C[C@@H](Oc3nccc4ccccc34)CN2C1=O [Compound 2, [18-(Isoquinolin-1-yloxy)-4-methanesulfonylaminocarbonyl-2,15-dioxo-3,16-diaza-tricyclo[14.3.0.0^4,6]nonadec-7-en-14-yl]-carbamic acid tert-butyl ester] | 146 |

tested on: HCV replicon; test: Three-drug combination studies in HCV replicon system, combination index; assay type: cell-based; settings: 75, 90 and 95% effective doses
Protocol: […] an NS5B replicase inhibitor (compound 2006; WO 03/010141), were tested in 2-drug combinations with the macrocyclic HCV NS3 protease inhibitor compound 28. In addition, compound 28 was also tested in 3-drug combinations with the NS5A and NS5B inhibitors.
For the experiments shown in Tables 8 and 9, inhibitors were tested at eleven concentrations each. 200× stock solutions of each inhibitor concentration were prepared by 2- or 3-fold dilution in DMSO prior to addition to cells/media. The drugs were tested as monotherapies and in combination with the NS3 protease inhibitor at various concentration ratios. Cells were exposed to compounds for 4 days and the amount of HCV inhibition was then determined using the FRET assay. The potential cytotoxicities of these combined agents were also analyzed in parallel by Alamar Blue staining. […] The degree of antagonism, additivity, or synergy was determined over a range of drug concentrations, and combination response curves were fit to assess the antiviral effects of the drug treatment combinations. The concentration ratios were analyzed using the method of Chou (Chou, Ting-Chao, and Rideout (Editors), (1991) Synergism and Antagonism in Chemotherapy, P. 61–101, Academic Press, New York). Tables 8 and 9 report the estimated EC50 values for the compounds tested, as well as the combination indices (CI). All estimates were computed using SAS Proc NLIN, and a two-parameter logistic. All combination indices were tested for departure from additivity using isobologram methods. Asymptotic confidence intervals were also calculated for each of the combination indices. These intervals are used to test for departure from additivity by comparing the bounds to one—a lower bound of the interval greater than 1 indicates antagonism, an upper bound of less than 1 indicates synergism, and a value of 1 contained in the interval indicates additivity.
Compound 28 was also tested in 3-drug combination experiments with the NS5A inhibitor and the NS5B inhibitor (Table 12). The starting concentrations for the mono-therapies consisted of a 0.667 μM solution of the NS5A inhibitor, a 0.3 μM solution of compound 28, and a 2.5 μM solution of the NS5B inhibitor. The starting concentration for the triple combination contained a mixture of ⅓ of each of the above concentrations. Dose response curves for all three mono-therapies and the triple combination therapy were obtained using 3-fold dilutions, and data analysis was carried out as described above for combination index experiments.

| Structure (SMILES) | combination effect, 3-drug combination with the NS5A inhibitor and the NS5B inhibitor |
| --- | --- |
| COc1ccc2c(OC3CC4C(=O)NC5(C(=O)NS(=O)(=O)C6CC6)CC5C=CCOCCCC(NC(=O)OC(C)(C)C)C(=O)N4C3)nccc2c1 (stereo not shown) [Compound 28, [4-Cyclopropanesulfonylaminocarbonyl-18-(6-methoxy-isoquinolin-1-yloxy)-2,15-dioxo-10-oxa-3,16-diaza-tricyclo[14.3.0.0^4,6]nonadec-7-en-14-yl]-carbamic acid tert-butyl ester] | Synergistic effects; also recorded: No drug antagonism |

same assay, conditions: Hepatitis C virus, mono-therapy in the three-drug combination experiment, HCV replicon; NS3 Pr inhibitor is compound 28; read-out: NS3 Pr inhibitor EC50

| Structure (SMILES) | EC50 [nM] |
| --- | --- |
| COc1ccc2c(OC3CC4C(=O)NC5(C(=O)NS(=O)(=O)C6CC6)CC5C=CCOCCCC(NC(=O)OC(C)(C)C)C(=O)N4C3)nccc2c1 (stereo not shown) [Compound 28, [4-Cyclopropanesulfonylaminocarbonyl-18-(6-methoxy-isoquinolin-1-yloxy)-2,15-dioxo-10-oxa-3,16-diaza-tricyclo[14.3.0.0^4,6]nonadec-7-en-14-yl]-carbamic acid tert-butyl ester] | 8 |
